# Experimental data from the supplement of paper PMC10307832.
# Columns and labels:
# Test in all cases: relative viability (nuclei count vs DMSO), 5 days (fraction); higher = more cells survive
# [1] = compound: CCOc1cc2ncc(C#N)c(Nc3ccc(OCc4ccccn4)c(Cl)c3)c2cc1NC(=O)/C=C/CN(C)C [Neratinib] + C[C@]1(O)C[C@@H](c2nc(-c3ccc4ccc(-c5ccccc5)nc4c3)c3c(N)nccn32)C1 [Linsitinib] (partner 1 µM)
# Outline: (§1)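 Nuclei were stained with Hoechst during a one-step fixation (final 0.05% Triton X-100, 1% formaldehyde, 1 ug/ml Hoechst) carried out 5 days after dosing, then counted on 4× images. The cells, lung cancer lines in 1536-well plates, had been dosed by pin tool the day after seeding with one drug alone or a fixed anchor-drug dose plus five library-drug doses (not always all listed) in √10 steps. Relative viability is the nuclei count in treated wells divided by that in vehicle wells, and each value is the median of duplicate plates.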
# [2] = compound: CCOc1cc2ncc(C#N)c(Nc3ccc(OCc4ccccn4)c(Cl)c3)c2cc1NC(=O)/C=C/CN(C)C [Neratinib] + Nc1nc2[nH]cc(CCc3ccc(C(=O)N[C@@H](CCC(=O)O)C(=O)O)cc3)c2c(=O)[nH]1 [Pemetrexed] (partner 0.2 µM)
# Outline: as §1
# [3] = compound: CCOc1cc2ncc(C#N)c(Nc3ccc(OCc4ccccn4)c(Cl)c3)c2cc1NC(=O)/C=C/CN(C)C [Neratinib] + O=C(CCCCCCC(=O)Nc1ccccc1)NO [Vorinostat] (partner 1 µM)
# Outline: as §1
# [4] = compound: CCOc1cc2ncc(C#N)c(Nc3ccc(OCc4ccccn4)c(Cl)c3)c2cc1NC(=O)/C=C/CN(C)C [Neratinib] + O=C(c1cc(Cc2n[nH]c(=O)c3ccccc23)ccc1F)N1CCN(C(=O)C2CC2)CC1 [Olaparib] (partner 8 µM)
# Outline: as §1
cell line,measurement,setting,value
NCI-H2085,relative viability,[1]; first compound 0.01 µM,0.858
same,relative viability,[1]; first compound 0.03162 µM,1.11
same,relative viability,[1]; first compound 0.1 µM,0.81
same,relative viability,[1]; first compound 0.3162 µM,0.668
same,relative viability,[1]; first compound 1 µM,0.474
same,relative viability,[2]; first compound 0.01 µM,0.962
same,relative viability,[2]; first compound 0.03162 µM,0.987
same,relative viability,[2]; first compound 0.1 µM,0.754
same,relative viability,[2]; first compound 0.3162 µM,0.655
same,relative viability,[2]; first compound 1 µM,0.71
same,relative viability,[3]; first compound 0.01 µM,0.825
same,relative viability,[3]; first compound 0.1 µM,0.687
same,relative viability,[3]; first compound 0.3162 µM,0.623
same,relative viability,[3]; first compound 1 µM,0.696
same,relative viability,[4]; first compound 0.01 µM,0.755
same,relative viability,[4]; first compound 0.03162 µM,0.8
same,relative viability,[4]; first compound 0.1 µM,0.729
same,relative viability,[4]; first compound 0.3162 µM,0.644
same,relative viability,[4]; first compound 1 µM,0.639
NCI-H2087,relative viability,[1]; first compound 0.01 µM,0.951
same,relative viability,[1]; first compound 0.03162 µM,0.949
same,relative viability,[1]; first compound 0.3162 µM,0.765
same,relative viability,[1]; first compound 1 µM,0.615
same,relative viability,[2]; first compound 0.01 µM,0.634
same,relative viability,[2]; first compound 0.03162 µM,0.74
same,relative viability,[2]; first compound 0.1 µM,0.655
same,relative viability,[2]; first compound 0.3162 µM,0.694
same,relative viability,[2]; first compound 1 µM,0.548
same,relative viability,[3]; first compound 0.01 µM,0.783
same,relative viability,[3]; first compound 0.03162 µM,0.566
same,relative viability,[3]; first compound 0.1 µM,0.538
same,relative viability,[3]; first compound 0.3162 µM,0.711
same,relative viability,[3]; first compound 1 µM,0.573
same,relative viability,[4]; first compound 0.01 µM,0.622
same,relative viability,[4]; first compound 0.03162 µM,0.496
same,relative viability,[4]; first compound 0.1 µM,0.643
same,relative viability,[4]; first compound 0.3162 µM,0.424
same,relative viability,[4]; first compound 1 µM,0.255
NCI-H2126,relative viability,[1]; first compound 0.01 µM,0.693
same,relative viability,[1]; first compound 0.03162 µM,0.719
same,relative viability,[1]; first compound 0.1 µM,0.581
same,relative viability,[1]; first compound 0.3162 µM,0.654
same,relative viability,[1]; first compound 1 µM,0.38
same,relative viability,[2]; first compound 0.01 µM,0.659
same,relative viability,[2]; first compound 0.03162 µM,0.638
same,relative viability,[2]; first compound 0.1 µM,0.623
same,relative viability,[2]; first compound 0.3162 µM,0.616
same,relative viability,[2]; first compound 1 µM,0.404
same,relative viability,[3]; first compound 0.01 µM,0.776
same,relative viability,[3]; first compound 0.03162 µM,0.79
same,relative viability,[3]; first compound 0.1 µM,0.706
same,relative viability,[3]; first compound 0.3162 µM,0.574
same,relative viability,[3]; first compound 1 µM,0.379
same,relative viability,[4]; first compound 0.01 µM,0.958
same,relative viability,[4]; first compound 0.03162 µM,0.891
same,relative viability,[4]; first compound 0.1 µM,0.815
same,relative viability,[4]; first compound 0.3162 µM,0.871
same,relative viability,[4]; first compound 1 µM,0.492
NCI-H2228,relative viability,[1]; first compound 0.01 µM,0.88
same,relative viability,[1]; first compound 0.03162 µM,0.526
same,relative viability,[1]; first compound 0.1 µM,0.388
same,relative viability,[1]; first compound 0.3162 µM,0.582
same,relative viability,[1]; first compound 1 µM,0.421
same,relative viability,[2]; first compound 0.01 µM,0.382
same,relative viability,[2]; first compound 0.03162 µM,0.362
same,relative viability,[2]; first compound 0.1 µM,0.306
same,relative viability,[2]; first compound 0.3162 µM,0.271
same,relative viability,[2]; first compound 1 µM,0.147
same,relative viability,[3]; first compound 0.01 µM,0.769
same,relative viability,[3]; first compound 0.03162 µM,0.871
same,relative viability,[3]; first compound 0.1 µM,0.623
same,relative viability,[3]; first compound 0.3162 µM,0.7
same,relative viability,[3]; first compound 1 µM,0.318
same,relative viability,[4]; first compound 0.01 µM,0.943
same,relative viability,[4]; first compound 0.03162 µM,0.576
same,relative viability,[4]; first compound 0.1 µM,0.589
same,relative viability,[4]; first compound 0.3162 µM,0.425
same,relative viability,[4]; first compound 1 µM,0.199
NCI-H2347,relative viability,[1]; first compound 0.01 µM,0.989
same,relative viability,[1]; first compound 0.03162 µM,0.988
same,relative viability,[1]; first compound 0.1 µM,0.95
same,relative viability,[1]; first compound 0.3162 µM,0.992
same,relative viability,[1]; first compound 1 µM,0.974
same,relative viability,[2]; first compound 0.01 µM,0.423
same,relative viability,[2]; first compound 0.03162 µM,0.479
same,relative viability,[2]; first compound 0.1 µM,0.396
same,relative viability,[2]; first compound 0.3162 µM,0.495
same,relative viability,[2]; first compound 1 µM,0.449
same,relative viability,[3]; first compound 0.01 µM,0.64
same,relative viability,[3]; first compound 0.03162 µM,0.715
same,relative viability,[3]; first compound 0.1 µM,0.55
same,relative viability,[3]; first compound 0.3162 µM,0.634
same,relative viability,[3]; first compound 1 µM,0.407
same,relative viability,[4]; first compound 0.03162 µM,0.59
same,relative viability,[4]; first compound 0.1 µM,0.545
same,relative viability,[4]; first compound 0.3162 µM,0.564
same,relative viability,[4]; first compound 1 µM,0.455
NCI-H2405,relative viability,[1]; first compound 0.01 µM,0.945
same,relative viability,[1]; first compound 0.03162 µM,1.03
same,relative viability,[1]; first compound 0.1 µM,0.836
same,relative viability,[1]; first compound 0.3162 µM,0.792
same,relative viability,[1]; first compound 1 µM,0.469
same,relative viability,[2]; first compound 0.01 µM,1.19
same,relative viability,[2]; first compound 0.03162 µM,1.16
same,relative viability,[2]; first compound 0.1 µM,1.02
same,relative viability,[2]; first compound 0.3162 µM,1.04
same,relative viability,[3]; first compound 0.01 µM,1.32
same,relative viability,[3]; first compound 0.03162 µM,1.18
same,relative viability,[3]; first compound 0.1 µM,0.955
same,relative viability,[3]; first compound 0.3162 µM,1.04
same,relative viability,[3]; first compound 1 µM,0.891
same,relative viability,[4]; first compound 0.01 µM,0.892
same,relative viability,[4]; first compound 0.03162 µM,0.93
same,relative viability,[4]; first compound 0.1 µM,0.85
same,relative viability,[4]; first compound 0.3162 µM,0.908
same,relative viability,[4]; first compound 1 µM,0.619
NCI-H3122,relative viability,[1]; first compound 0.01 µM,1.05
same,relative viability,[1]; first compound 0.03162 µM,0.993
same,relative viability,[1]; first compound 0.1 µM,1.04
same,relative viability,[1]; first compound 0.3162 µM,1.02
same,relative viability,[1]; first compound 1 µM,0.256
same,relative viability,[2]; first compound 0.01 µM,0.197
same,relative viability,[2]; first compound 0.03162 µM,0.214
same,relative viability,[2]; first compound 0.1 µM,0.179
same,relative viability,[2]; first compound 0.3162 µM,0.551
same,relative viability,[2]; first compound 1 µM,0.187
same,relative viability,[3]; first compound 0.01 µM,1.04
same,relative viability,[3]; first compound 0.03162 µM,1.09
same,relative viability,[3]; first compound 0.1 µM,1.02
same,relative viability,[3]; first compound 0.3162 µM,0.992
same,relative viability,[3]; first compound 1 µM,0.609
same,relative viability,[4]; first compound 0.01 µM,0.609
same,relative viability,[4]; first compound 0.03162 µM,0.699
same,relative viability,[4]; first compound 0.1 µM,0.571
same,relative viability,[4]; first compound 0.3162 µM,0.617
same,relative viability,[4]; first compound 1 µM,0.587
PC-3 [JPC-3],relative viability,[1]; first compound 0.01 µM,1.03
same,relative viability,[1]; first compound 0.03162 µM,1.03
same,relative viability,[1]; first compound 0.1 µM,0.894
same,relative viability,[1]; first compound 1 µM,0.348
same,relative viability,[2]; first compound 0.01 µM,1.44
same,relative viability,[2]; first compound 0.03162 µM,1.32
same,relative viability,[2]; first compound 0.1 µM,1.07
same,relative viability,[2]; first compound 0.3162 µM,0.564
same,relative viability,[2]; first compound 1 µM,0.43
same,relative viability,[3]; first compound 0.01 µM,1.14
same,relative viability,[3]; first compound 0.03162 µM,0.82
same,relative viability,[3]; first compound 0.1 µM,0.783
same,relative viability,[3]; first compound 0.3162 µM,0.424
same,relative viability,[3]; first compound 1 µM,0.665
same,relative viability,[4]; first compound 0.03162 µM,1.29
same,relative viability,[4]; first compound 0.1 µM,0.964
same,relative viability,[4]; first compound 0.3162 µM,0.81
same,relative viability,[4]; first compound 1 µM,0.424
